Key:
human NHE-3 = target: T1, human NHE-3 (Homo sapiens, UniProt P48764); test: Cell-based assay of NHE-3 activity (human NHE3 inhibition assay); settings: OK cells with human NHE-3 gene, BCECF pH dye, 0-30 μM test compound
T1 construct: expressed in transfected cells; host or cells: Opossum kidney (OK) cells (ATCC), transfected by electroporation
T1 sequence (P48764 26-834): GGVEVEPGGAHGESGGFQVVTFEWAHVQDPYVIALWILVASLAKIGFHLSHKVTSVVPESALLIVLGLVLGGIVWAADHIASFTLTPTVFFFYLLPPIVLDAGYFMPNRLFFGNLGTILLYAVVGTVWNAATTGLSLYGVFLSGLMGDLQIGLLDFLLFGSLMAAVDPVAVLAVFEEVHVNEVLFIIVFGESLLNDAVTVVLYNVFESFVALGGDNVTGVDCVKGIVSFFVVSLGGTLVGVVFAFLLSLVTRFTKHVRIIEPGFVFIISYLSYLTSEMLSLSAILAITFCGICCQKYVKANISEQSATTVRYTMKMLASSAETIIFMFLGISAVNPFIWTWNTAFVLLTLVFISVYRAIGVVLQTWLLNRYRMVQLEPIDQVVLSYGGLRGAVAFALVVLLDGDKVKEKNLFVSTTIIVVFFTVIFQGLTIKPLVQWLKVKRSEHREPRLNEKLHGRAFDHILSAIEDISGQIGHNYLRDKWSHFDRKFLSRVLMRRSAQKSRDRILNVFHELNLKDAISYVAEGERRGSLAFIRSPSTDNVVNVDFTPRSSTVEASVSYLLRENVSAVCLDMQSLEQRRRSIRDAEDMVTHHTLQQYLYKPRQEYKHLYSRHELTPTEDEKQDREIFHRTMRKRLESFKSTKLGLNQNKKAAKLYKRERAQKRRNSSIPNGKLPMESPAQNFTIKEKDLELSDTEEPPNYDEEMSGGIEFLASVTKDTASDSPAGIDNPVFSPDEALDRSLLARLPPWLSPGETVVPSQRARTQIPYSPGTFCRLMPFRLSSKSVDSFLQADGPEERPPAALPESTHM
How it was run: (§1)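 Opossum kidney cells electroporated with rat or human NHE-3, loaded with 5 μM BCECF-AM in NH4Cl-HEPES pH 7.4 for 30 min at RT, then acidified 10 min in Na+-free choline HEPES. Na+-dependent pH recovery rates from BCECF fluorescence, averaged over ≥2 replicates, gave pIC50.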

Plasma PK = format: in vivo, Sprague-Dawley rats; settings: Sprague-Dawley; rat plasma, oral gavage, nominal dose 30 mg/kg, mean of n=3, sampling 0.5-4 h
Procedure: Sprague-Dawley rats (n=3) were dosed with test compounds by oral gavage. Blood was collected at 0.5, 1, 2 and 4 h via retro-orbital bleeds and processed to plasma using K2EDTA as an anticoagulant. Plasma samples were treated with acetonitrile containing an internal standard and precipitated proteins were removed by centrifugation. Supernatants were analyzed by LC-MS/MS and compound concentrations were determined by interpolation from a calibration curve prepared in plasma. Accurate recovery of quality control samples were confirmed to accept each analytical run.

Rat NHE-3 [1] = target: T2, Rat NHE-3 (Rattus norvegicus, UniProt P26433); test: Cell-based assay of NHE-3 activity (rat NHE-3 prompt inhibition); settings: OK cells with rat NHE-3 gene, compound present during pH recovery
T2 construct: expressed in transfected cells; host or cells: Opossum kidney (OK) cells (ATCC), transfected by electroporation
How it was run: as §1

Rat NHE-3 [2] = target: T2, Rat NHE-3; test: Cell-based assay of NHE-3 activity (persistent inhibition, after washout); settings: OK cells with rat NHE-3 gene, 60 min incubation, recovery initiated 40 min after compound washout
How it was run: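 OK cells transiently expressing rat NHE-3 were exposed to 0-30 μM compound in NaCl-HEPES pH 7.4 for 60 min, then washed free of drug before NH4Cl/BCECF-AM loading and acid-loading in Na+-free choline buffer. Na+-dependent pH recovery rates (mean of ≥2 replicates) gave pIC50.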

[3] = human absorption data, from Ertl et al., J. Med. Chem., 2000; cited from earlier work
[4] = Pharmacokinetic evaluation in bile; format: in vivo, Sprague-Dawley rats; settings: bile duct cannulated rats, oral gavage, nominal dose 30 mg/kg, bile collected over 24 h, mean of n=3
Procedure: Bile duct cannulated (BDC) Sprague-Dawley rats were dosed with test compounds by oral gavage and a single aliquot of bile was collected via cannula over the 24 h following dosing. Bile samples were treated with acetonitrile and precipitated proteins were removed by centrifugation. Some compounds required liquid-liquid extraction using MTBE. After centrifugation, samples were diluted as appropriate in mobile phase and analyzed by LC-MS/MS. The concentrations of compounds in bile were determined by interpolation from a standard calibration curve prepared in rat bile from untreated BDC rats. Accurate recovery of quality control samples was confirmed to accept each analytical run. Concentration in bile is reported in nM and represents the mean result from n=3 rats.

Fecal recovery = format: in vivo, Sprague Dawley rats; settings: male, Sprague-Dawley, faeces; rat, 1 mg/kg oral gavage, collection time 48 h
Procedure: Three male Sprague Dawley rats were administered 1 mg/kg test compound by oral gavage. Feces were collected from study animals from 0-48 or 0-72 hours after dosing, dried by lyophilization, and homogenized. Replicate aliquots of 40-60 mg each were subjected to extraction/protein precipitation with 7:1 acetonitrile:water and centrifuged. Supernatants were diluted 1:10 in 50:50 acetonitrile:water prior to analysis by LC-MS/MS. Compound concentrations, determined by interpolation from a standard calibration curve prepared in blank feces matrix, were converted to the percentage of dosed material recovered by taking into account the total collected fecal matter. The percent recovery for each rat was reported as the mean of the calculations from replicate samples. The overall percent recovery (Fecal Recovery [%]) was reported as the mean percent recovery from three rats. Accurate quality control sample recoveries were confirmed in each run, and extraction efficiency was periodically verified.

[5] = test system: absorption of sodium from the intestinal lumen; test: Inhibition of intestinal sodium absorption (urinary sodium and fecal form); format: in vivo, Sprague-Dawley rats; settings: rat; for FFS: fecal form score, scale 1 (normal pellet) to 5 (liquid fecal streams), group average, 3 mg/kg oral, 16 h post-dose, vehicle = 1; for response vs control in vivo at 3 mg/kg: 3 mg/kg oral gavage, urine 16 h post-dose, asterisks = significance vs vehicle (*P<0.05, **P<0.01, ***P<0.001), read-out: uNa (% of vehicle)
How it was run: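 Sprague-Dawley rats (8 weeks, n=6) dosed by oral gavage with compound or water vehicle (10 mL/kg) in late afternoon, then housed in metabolic cages. Over 16 h, urinary sodium measured by ion chromatography and expressed as % of vehicle mean; fecal form scored 1–5, averaged from two observations.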

T2 sequence (P26433 29-831): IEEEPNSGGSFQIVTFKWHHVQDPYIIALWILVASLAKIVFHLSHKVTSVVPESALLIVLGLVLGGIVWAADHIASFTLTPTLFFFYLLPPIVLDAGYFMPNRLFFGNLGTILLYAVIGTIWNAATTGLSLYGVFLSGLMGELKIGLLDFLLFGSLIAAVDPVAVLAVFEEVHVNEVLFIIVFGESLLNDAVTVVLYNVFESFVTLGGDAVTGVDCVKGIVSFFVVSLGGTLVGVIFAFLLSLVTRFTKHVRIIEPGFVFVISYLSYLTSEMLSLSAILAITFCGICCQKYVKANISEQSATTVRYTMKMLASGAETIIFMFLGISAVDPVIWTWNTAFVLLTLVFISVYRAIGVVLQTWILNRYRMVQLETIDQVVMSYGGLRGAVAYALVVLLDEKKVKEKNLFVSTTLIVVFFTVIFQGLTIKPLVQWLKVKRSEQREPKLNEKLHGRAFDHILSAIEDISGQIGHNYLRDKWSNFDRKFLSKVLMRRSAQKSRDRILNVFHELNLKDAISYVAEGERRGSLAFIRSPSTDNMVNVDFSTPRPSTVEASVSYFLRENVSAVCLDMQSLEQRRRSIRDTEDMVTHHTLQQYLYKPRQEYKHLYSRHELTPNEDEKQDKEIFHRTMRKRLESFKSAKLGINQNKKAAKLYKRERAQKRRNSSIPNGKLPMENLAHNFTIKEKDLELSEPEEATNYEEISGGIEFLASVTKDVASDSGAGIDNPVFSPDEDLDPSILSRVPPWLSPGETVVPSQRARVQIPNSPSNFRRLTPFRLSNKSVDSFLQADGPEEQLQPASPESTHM

CN1Cc2c(Cl)cc(Cl)cc2[C@H](c2cccc(S(=O)(=O)NCCOCCOCCOCCNC(=O)NCCN(CCNC(=O)NCCOCCOCCOCCNS(=O)(=O)c3cccc([C@@H]4CN(C)Cc5c(Cl)cc(Cl)cc54)c3)CCNC(=O)NCCOCCOCCOCCNS(=O)(=O)c3cccc([C@@H]4CN(C)Cc5c(Cl)cc(Cl)cc54)c3)c2)C1 [Example 52]
Human NHE3 pIC50 (human NHE-3): C (C NHE3 pIC50 > 7) | AUC (Plasma PK): < 19 ng·h/mL | Cmax (Plasma PK): < 5 ng/mL | Rat NHE3 pIC50 (prompt) (Rat NHE-3 [1]): B (B NHE3 pIC50 5-7) | Rat NHE3 pIC50 (persistent) (Rat NHE-3 [2]): C (C NHE3 pIC50 > 7)

OC[C@H]1O[C@H](OC[C@H]2O[C@H](O[C@]3(CO)O[C@H](CO)[C@@H](O)[C@@H]3O)[C@H](O)[C@@H](O)[C@@H]2O)[C@H](O)[C@@H](O)[C@H]1O [raffinose]
% FA [3]: 0.3%

CC(C)NCC(O)COc1cccc2[nH]ccc12 (centres unmarked) [pindolol]
% FA [3]: 92%

C=CCOc1ccccc1OCC(O)CNC(C)C (centres unmarked) [oxprenolol]
% FA [3]: 97%

O=C(O)P(=O)(O)O [foscarnet]
% FA [3]: 17%

NC[C@H]1CC[C@H](C(=O)O)CC1 [tranexamic acid]
% FA [3]: 55%

CN1Cc2c(Cl)cc(Cl)cc2[C@H](c2cccc(S(=O)(=O)NCCOCCOCCNC(=O)NCCC(N)(CCNC(=O)NCCOCCOCCNS(=O)(=O)c3cccc([C@@H]4CN(C)Cc5c(Cl)cc(Cl)cc54)c3)CCNC(=O)NCCOCCOCCNS(=O)(=O)c3cccc([C@@H]4CN(C)Cc5c(Cl)cc(Cl)cc54)c3)c2)C1 [Example 46, (S)—N,N′-(14-amino-14-(13-(3-((S)-6,8-dichloro-2-methyl-1,2,3,4-tetrahydroisoquinolin-4-yl)phenylsulfonamido)-4-oxo-8,11-dioxa-3,5-diazatridecyl)-10,18-dioxo-3,6,22,25-tetraoxa-9,11,17,19-tetraazaheptacosane-1,27-diyl)bis(3-((S)-6,8-dichloro-2-methyl-1,2,3,4-tetrahydroisoquinolin-4-yl)benzenesulfonamide)]
IC50 (human NHE-3; read-out: Human NHE3 pIC50 (converted)): < 100 nM | Concentration in Bile [4]: 3 nM | IC50 (Rat NHE-3 [1]; read-out: Rat NHE3 pIC50 (prompt) (converted)): < 100 nM | dose excreted (Fecal recovery): 75.8% | IC50 (Rat NHE-3 [2]; read-out: Rat NHE3 pIC50 (persistent) (converted)): < 100 nM

OC[C@H]1O[C@@H](O[C@@H]2[C@@H](CO)OC(O)(CO)[C@H]2O)[C@H](O)[C@@H](O)[C@H]1O (mixture of isomers) [lactulose]
% FA [3]: 0.6%

CC(=O)Nc1ccc(OCC(O)CNC(C)C)cc1 (centres unmarked) [practolol]
% FA [3]: 95%

OC[C@@H](O)[C@@H](O)[C@H](O)[C@H](O)CO [mannitol]
% FA [3]: 26%

CCN1CCCC1CNC(=O)c1cc(S(N)(=O)=O)ccc1OC (centres unmarked) [sulpiride]
% FA [3]: 36%

O=C(O)c1cc(/N=N/c2ccc(S(=O)(=O)Nc3ccccn3)cc2)ccc1O [sulfasalazine]
% FA [3]: 12%

O=C(O)c1cc(/N=N/c2ccc(O)c(C(=O)O)c2)ccc1O [olsalazine]
% FA [3]: 2.3%

Cc1ccccc1N1C(=O)c2cc(S(N)(=O)=O)c(Cl)cc2NC1C (centres unmarked) [metolazone]
% FA [3]: 64%

CN1Cc2c(Cl)cc(Cl)cc2[C@H](c2cccc(S(=O)(=O)NCCOCCOCCNC(=O)CCC(CCC(=O)NCCOCCOCCNS(=O)(=O)c3cccc([C@@H]4CN(C)Cc5c(Cl)cc(Cl)cc54)c3)(CCC(=O)NCCOCCOCCNS(=O)(=O)c3cccc([C@@H]4CN(C)Cc5c(Cl)cc(Cl)cc54)c3)NC(=O)NCP(=O)(O)O)c2)C1 [Example 32]
FFS [5]: 2 | response vs control in vivo at 3 mg/kg [5]: 35 to 75% | Human NHE3 pIC50 (human NHE-3): B (B NHE3 pIC50 5-7) | Rat NHE3 pIC50 (prompt) (Rat NHE-3 [1]): C (C NHE3 pIC50 > 7) | Rat NHE3 pIC50 (persistent) (Rat NHE-3 [2]): C (C NHE3 pIC50 > 7)

CN1Cc2c(Cl)cc(Cl)cc2C(c2cccc(S(=O)(=O)NCCOCCOCCNC(=O)CCC(CCC(=O)NCCOCCOCCNS(=O)(=O)c3cccc(C4CN(C)Cc5c(Cl)cc(Cl)cc54)c3)(CCC(=O)NCCOCCOCCNS(=O)(=O)c3cccc(C4CN(C)Cc5c(Cl)cc(Cl)cc54)c3)NC(=O)C3CCCCC3C(=O)O)c2)C1 (centres unmarked) [Example 28]
response vs control in vivo at 3 mg/kg [5]: 35 to 75% | Human NHE3 pIC50 (human NHE-3): C (C NHE3 pIC50 > 7) | Rat NHE3 pIC50 (prompt) (Rat NHE-3 [1]): B (B NHE3 pIC50 5-7) | Rat NHE3 pIC50 (persistent) (Rat NHE-3 [2]): C (C NHE3 pIC50 > 7)

CN1Cc2c(Cl)cc(Cl)cc2[C@H](c2cccc(S(=O)(=O)NCCOCCOCCN(C)C(=O)CCC(CCC(=O)N(C)CCOCCOCCNS(=O)(=O)c3cccc([C@@H]4CN(C)Cc5c(Cl)cc(Cl)cc54)c3)(CCC(=O)N(C)CCOCCOCCNS(=O)(=O)c3cccc([C@@H]4CN(C)Cc5c(Cl)cc(Cl)cc54)c3)NC(=O)COCC(=O)O)c2)C1 [Example 70]
FFS [5]: 2 | response vs control in vivo at 3 mg/kg [5]: 35 to 75% | Human NHE3 pIC50 (human NHE-3): C (C NHE3 pIC50 > 7) | Rat NHE3 pIC50 (prompt) (Rat NHE-3 [1]): C (C NHE3 pIC50 > 7) | Rat NHE3 pIC50 (persistent) (Rat NHE-3 [2]): C (C NHE3 pIC50 > 7)

C=CCc1ccccc1OCC(O)CNC(C)C (centres unmarked) [alprenolol]
% FA [3]: 96%

CN1Cc2c(Cl)cc(Cl)cc2[C@H](c2cccc(S(=O)(=O)NCCOCCOCCNC(=O)NCCCC(CCCNC(=O)NCCOCCOCCNS(=O)(=O)c3cccc([C@@H]4CN(C)Cc5c(Cl)cc(Cl)cc54)c3)(CCCNC(=O)NCCOCCOCCNS(=O)(=O)c3cccc([C@@H]4CN(C)Cc5c(Cl)cc(Cl)cc54)c3)NC(=O)CCC(=O)O)c2)C1 [Example 63]
response vs control in vivo at 3 mg/kg [5]: 35 to 75% | Human NHE3 pIC50 (human NHE-3): C (C NHE3 pIC50 > 7) | Rat NHE3 pIC50 (prompt) (Rat NHE-3 [1]): C (C NHE3 pIC50 > 7) | Rat NHE3 pIC50 (persistent) (Rat NHE-3 [2]): C (C NHE3 pIC50 > 7)
